Reference: US6770645B2, “Pharmaceutically active compounds” (Pfizer Inc., priority 2001, dated 2004)
Like-named read-outs stand apart in the source and are kept apart here.

Assays:
cGMP PDE5 = target: T1, cGMP PDE5 (Homo sapiens, UniProt O76074); test: In vitro cGMP PDE5 inhibitory activity (IC50); assay type: biochemical
T1 construct: The required PDE enzymes were isolated from a variety of sources, including human corpus cavernosum, human platelets; from tissue; host or cells: human corpus cavernosum tissue or human platelets
Description: The compounds of the present invention are potent and selective cGMP PDE5 inhibitors. In vitro PDE inhibitory activities against cyclic guanosine 3′,5′-monophosphate (cGMP) and cyclic adenosine 3′,5′-monophosphate (cAMP) phosphodiesterases were determined by measurement of their IC50 values (the concentration of compound required for 50% inhibition of enzyme activity).
The required PDE enzymes were isolated from a variety of sources, including human corpus cavernosum, human platelets, human cardiac ventricle, human skeletal muscle and human and canine retina, essentially by the method of W. J. Thompson and M. M. Appleman (Biochem., 1971, 10, 311). In particular, the cGMP-specific PDE (PDE5) and the cGMP-inhibited cAMP PDE (PDE3) were obtained from human corpus cavernosum tissue or human platelets; the cGMP-stimulated PDE (PDE2) was obtained from human corpus cavernosum or human platelets; the calcium/calmodulin (Ca/CAM)-dependent PDE (PDE1) from human cardiac ventricle; the cAMP-specific PDE (PDE4) from recombinant clone or human skeletal muscle; and the photoreceptor PDE (PDE6) from canine or human retina. Phosphodiesterases 7-11 were generated from full length human recombinant clones transfected into SF9 cells.
Assays were performed either using a modification of the “batch” method of W. J. Thompson et al. (Biochem., 1979, 18, 5228) or using a scintillation proximity assay for the direct detection of AMP/GMP using a modification of the protocol described by Amersham pic under product code TRKQ7090/7100. In summary, the effect of PDE inhibitors was investigated by assaying a fixed amount of enzyme in the presence of varying inhibitor concentrations and low substrate, (cGMP or cAMP in a 3:1 ratio unlabelled to [^3H]-labeled at a conc ˜½ Km) such that IC50 ≅Ki. The final assay volume was made up to 102 μl with assay buffer [20 mM Tris-HCl pH 7.4, 5 mM MgCl2, 1 mg/ml bovine serum albumin]. Reactions were initiated with enzyme, incubated for 30-60 min at 30° C. to give <30% substrate turnover and terminated with 50 μl yttrium silicate SPA beads (containing 3 mM of the respective unlabelled cyclic nucleotide for PDEs 3, 9 and 11). Plates were resealed and shaken for 20 min, after which the beads were allowed to settle for 30 min in the dark and then counted on a TopCount plate reader (Packard, Meriden, Conn.). Radioactivity units were converted to % activity of an uninhibited control (100%), plotted against inhibitor concentration and inhibitor IC50 values obtained using the ‘Fit Curve’ Microsoft Excel extension or inhouse equivalent.

[1] = In vitro metabolism: human liver microsome (HLM) half-life; assay type: in vitro ADME; details: human liver microsomes, pH 7.4, human liver microsomes
Description: In vitro metabolism experiments were carried out in the hepatic microsomal fractions from man. Transplant-quality human liver tissue was obtained from the International Institute for the Advancement of Medicine (Exton, Pa., USA). Microsomes were prepared according to the method described in Biochemical Pharmacology, […], 48, 2147-2156 and stored at −80° C. The concentrations of protein and cytochrome P450 were determined by standard methods described in Journal of Biological Chemistry, 1951, 193, 265-275 and Journal of Biological Chemistry, 1964, 239, 2370-2378.
Microsomal incubations (1.5 ml) were prepared containing 0.5 μM cytochrome P450, 200 mM phosphate buffer (pH 7.4), 0.1 M MgCl2, 0.1 M isocitric acid, 1 unit/ml isocitrate dehydrogenase and 20 mM β-NADP. Compounds under study were added after a 5 min preincubation at 37° C. to give an initial substrate concentration of 1 μM. The mixture was incubated at 37° C. and samples (100 μl) were removed for analysis for up to 60 min. Metabolism in samples was terminated by the addition of NaOH (0.1 M) containing an internal standard (chosen to have similar physicochemical properties to compounds under study), followed by extraction into ethyl acetate (2 ml). The extracts were evaporated to dryness and analysed by LC-MS/MS (Hewlett Packard HP1100 binary pump, Hypersil HS100 C18, 5 cm by 4.6 mm internal diameter, 5 μm column using a mobile phase of 2 mM ammonium acetate in 90:10 methanol/water, aqueous portion adjusted to pH 4 with glacial acetic acid, and a flowrate of 1 ml/min). The mass spectrometer was a Sciex API 2000 with TurbolonSpray interface using a positive ion multiple reaction monitoring (MRM) detection mode. Nitrogen was used as curtain, nebuliser, TurbolonSpray and collision gases, and the TurbolonSpray temperature was 100° C. Typical voltages were as follows: IS=5.2 kV; RNG=380 V; Q0=−10 V; IQ1=−11 V; ST=−15;RO1=−11 V; MU=gain adjusted as per Sciex user manual. Collision energy was 55 eV for high MRM, OR=65 V. Dwell time was 200 msec with a 50 msec pause. Data was acquired using MSExpress v 1.1 and processed using Macquan 1.5 (PE Sciex)). Disappearance rate constants (k) in human microsomal preparations were determined by linear regression of the log ratio (compound under study/internal standard) versus time. The in vitro human microsomal half-lives were determined according to the equation […]=In 2/k.

[2] = bounds for groups of Examples, read-out: IC50 values for the PDE5 enzyme
[3] = in vitro cGMP PDE5 inhibitory activity, Table 1, read-out: IC50
[4] = bound stated, read-out: HLM half-lifes
[5] = initial substrate concentration 1 μM, 37° C., Table 2, read-out: HLM t1/2

| Compound | IC50 (cGMP PDE5; [2]) | IC50 (cGMP PDE5; [3]) | half-life at 1 μM [1, 4] | half-life at 1 μM [1, 5] | melting point |
| --- | --- | --- | --- | --- | --- |
| CCCOc1ccc(S(C)(=O)=O)cc1-c1nc2c(CC)n(CC3CC3)nc2c(=O)[nH]1 [Example 12, 2-(Cyclopropylmethyl)-3-ethyl-5-[5-(methylsulfonyl)-2-propoxyphenyl]-2,6-dihydro-7H-pyrazolo[4,3-d]pyrimidin-7-one] | < 10 nM | 1 nM | ≥ 30 min | > 120 min | 233 to 234 °C |
| CCc1c2nc(-c3cc(S(C)(=O)=O)ccc3OCC(C)C)[nH]c(=O)c2nn1C[C@H]1CCCN1C [Example 14, 3-Ethyl-5-[2-isobutoxy-5-(methylsulfonyl)phenyl]-2-{[(2R)-1-methylpyrrolidinyl]methyl}-2,6-dihydro-7H-pyrazolo[4,3-d]pyrimidin-7-one] | < 10 nM | 8.3 nM | ≥ 30 min |  | 178 to 180 °C |
| CCCc1nn(C)c2c(=O)[nH]c(-c3cc(S(C)(=O)=O)ccc3OCC)nc12 [Example 1, 5-[2-Ethoxy-5-(methylsulfonyl)phenyl]-1-methyl-3-propyl-1,6-dihydro-7H-pyrazolo[4,3-d]pyrimidin-7-one] | < 10 nM | 5.6 nM | ≥ 30 min | 67 min | 235 to 236 °C |
| CCCOc1ccc(S(C)(=O)=O)cc1-c1nc2c(CC)nn(Cc3ccccn3)c2c(=O)[nH]1 [Example 11, 3-Ethyl-5-[5-(methylsulfonyl)-2-propoxyphenyl]-1-(2-pyridinylmethyl)-1,6-dihydro-7H-pyrazolo[4,3-d]pyrimidin-7-one] | < 10 nM | 1.4 nM | ≥ 30 min |  |  |
| CCCCOc1ccc(S(C)(=O)=O)cc1-c1nc2c(CC)n(C3CN(C(C)C)C3)nc2c(=O)[nH]1 [Example 19, 5-[2-Butoxy-5-(methylsulfonyl)phenyl]-3-ethyl-2-(1-isopropyl-3-azetidinyl)-2,6-dihydro-7H-pyrazolo[4,3-d]pyrimidin-7-one] | < 10 nM | 6.6 nM | ≥ 30 min |  | 209 to 213 °C |
| CCCCOc1ccc(S(C)(=O)=O)cc1-c1nc2c(CC)n(CCOC)nc2c(=O)[nH]1 [Example 2, 5-[2-Butoxy-5-(methylsulfonyl)phenyl]-3-ethyl-2-(2-methoxyethyl)-2,6-dihydro-7H-pyrazolo[4,3-d]pyrimidin-7-one] | < 10 nM | 6.5 nM | ≥ 30 min |  | 174 to 176 °C |
| CCCOc1ccc(S(C)(=O)=O)cc1-c1nc2c(CC)nn(C[C@@H]3CCCN3C)c2c(=O)[nH]1 [Example 18, 3-Ethyl-1-{[(2S)-1-methylpyrrolidinyl]methyl}-5-[5-(methylsulfonyl)-2-propoxyphenyl]-1,6-dihydro-7H-pyrazolo[4,3-d]pyrimidin-7-one] | < 10 nM | 5.4 nM | ≥ 30 min |  | 211 to 215 °C |
| CCc1nn(Cc2nccn2C)c2c(=O)[nH]c(-c3cc(S(C)(=O)=O)ccc3OCC(C)C)nc12 [Example 7, 3-Ethyl-5-[2-isobutoxy-5-(methylsulfonyl)phenyl]-1-[(1-methyl-1H-imidazol-2-yl)methyl]-1,6-dihydro-7H-pyrazolo[4,3-d]pyrimidin-7-one] | < 10 nM | 1.7 nM |  |  | 253 to 254 °C |
| CCc1c2nc(-c3cc(S(C)(=O)=O)ccc3OCC(C)C)[nH]c(=O)c2nn1Cc1nccn1C [Example 9, 3-Ethyl-5-[2-isobutoxy-5-(methylsulfonyl)phenyl]-2-[(1-methyl-1H-imidazol-2-yl)methyl]-2,6-dihydro-7H-pyrazolo[4,3-d]pyrimidin-7-one] | < 10 nM | 3.95 nM | ≥ 30 min |  | 253 to 254 °C |
